Columns and labels:
Human dermal fibroblasts = experiment: TGF-b1 induced collagen protein production by dermal fibroblasts; type: cell-based; details: collagenase sensitive protein; for Collagen CPM/Well (mean ± SEM) × 10^−5 FB: hrTGF-b1 5 ng/ml, secosteroids at 10^−10M, 3[H]-proline
Description: Human dermal fibroblasts grown from explant skin cultures at less than 10 subpassages were plated at 5×10^4 cells per well in 24 well Costar tissue culture plates and were grown to confluency. Complete MEM was then changed to serum free Complete MEM without non-essential amino acids. After 24 hours, culture medium was changed (450 μl/well) to the same and secosteroids listed in Table 14 were added in 10 μl absolute alcohol (ETOH) to a final concentration of 10^−9 and M, 3 replicate wells each. Vehicle control wells (n=6) contained 10 μl (ETOH). After 2 hour pre-incubation, hr TGF-b1 (R and D systems) was added to each well except ETOH wells at a final concentration of 5 ng/ml. After 48 hours of culture, plate wells were paused with 1μ Cl ^3[H]-proline. After 24 hours, culture supernatants were harvested and collagenase sensitive protein was determined as previously described (44).

[1] = tested on: human dermal fibroblast line; experiment: TGF-b1 induced hyaluronan synthesis by dermal fibroblasts; type: cell-based; details: hrTGF-b1 5 ng/ml, secosteroids at 10^−10M
Excerpt: There were found no significant differences in fibroblast numbers per well and no significant differences in trypan blue exclusion between control wells vs those with secosteroids range 95-100% (data not shown).

[2] = tested on: SK Mel 188 human melanoma cells; experiment: Soft agar colony formation, SKMEL 188 melanoma; type: cell-based; details: for colony formation in soft agar versus vehicle control: SKMEL 188, 10 nM
Description: Growth and survival of prostate cancer cells (PC3) and melanoma cells SKMEL 188 and AbC1 was determined by following their ability to form colonies in soft agar. Cells growing in monolayer culture were trypsinized and resuspended (1,000 cells/well) in 0.25 ml medium containing 0.4% agarose and 5% charcoal stripped serum (HyClone).
Cell suspensions were added to 0.8% agar layer in 24 well plates. […] Each condition was tested in quadruplicate. An ethanol solvent control (amount of ethanol equivalent to test) as well as a media-only control was included in the assay. Cells were allowed to grow at 37° with 5% CO2 over two weeks with secosteroids in fresh media (100 μL) being added after every 72 h. Soft agar colonies were scored and stained with 0.5 mg/ml MTT reagent (Promega), 500 μL/well after two weeks. Colonies were then counted under the microscope and number of units was calculated as number of colonies formed divided by the number of cells seeded×100.

cytochrome P450scc = target: T1, cytochrome P450scc (Bos taurus, UniProt P00189); experiment: Metabolism by cytochrome P450scc in cyclodextrin
T1 sequence (P00189 40-520): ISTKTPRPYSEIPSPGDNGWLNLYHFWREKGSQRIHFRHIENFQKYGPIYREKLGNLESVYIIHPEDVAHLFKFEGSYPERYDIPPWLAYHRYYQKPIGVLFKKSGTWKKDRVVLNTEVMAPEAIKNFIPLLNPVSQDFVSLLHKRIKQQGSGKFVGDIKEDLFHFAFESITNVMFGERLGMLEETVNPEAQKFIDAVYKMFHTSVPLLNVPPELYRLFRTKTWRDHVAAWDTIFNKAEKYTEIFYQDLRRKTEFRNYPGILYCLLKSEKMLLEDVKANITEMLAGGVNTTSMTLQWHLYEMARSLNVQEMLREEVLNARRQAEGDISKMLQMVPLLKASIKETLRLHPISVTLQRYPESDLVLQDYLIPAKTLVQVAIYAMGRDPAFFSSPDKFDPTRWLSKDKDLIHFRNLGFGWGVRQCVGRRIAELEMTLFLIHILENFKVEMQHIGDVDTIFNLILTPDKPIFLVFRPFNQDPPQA
Description: Adrenodoxin was expressed in Escherichia coli and purified as described before (41). […] Metabolites were analysed using a Perkin Elmer HPLC equipped with a C18 column (Brownlee Aquapore, 22 cm×4.6 mm, particle size 7 μm).

HaCaT keratinocytes = experiment: [3H]-thymidine DNA synthesis in HaCaT keratinocytes; type: cell-based, human; details: HaCaT
Description: HaCaT keratinocytes were plated in 96-well plates at the density of 10,000 cells/well in DMEM (Cellgro, Herndon Va.) containing 5% charcoal treated fetal bovine serum (Hyclone, Logan, Utah), 1% antibiotic solution (PSA, Sigma, St. Louis, […].). Next day, media were changed and vehicle (ethanol) or secosteroids added. Cells were incubated with compounds for 48 hours. [^3H]-thymidine (Amersham Biosciences, Picataway, N.Y.) was added to the final concentration of 1 μCi/mL medium for last 12 hours of incubation. Media were then discarded, cells detached with trypsin and harvested on a glass fiber filter (Packard, Meriden, Calif.). Radioactivity was measured with a beta counter (Direct Beta-Counter Matrix 9600; Packard).
To measure DNA synthesis, keratinocytes, melanoma or prostate cancer cells were plated in 96-well plates. After overnight incubation tested compounds were added to the medium to achieve final concentrations 10^−7-10^−10 [M]. 100 μl of medium per well containing vitamin D3 compound was added to the cells. After 36 hours of incubation [3H]-thymidine (specific activity 88.0 Ci/mmol; Amersham Biosciences, Picataway, N.Y., USA) was added at 1 μCi/mL medium. After 12 hours, media were discarded, cells detached with trypsin and harvested on a glass fiber filter (Packard, Meriden, Calif., USA). 3H-radioactivity was measured with a beta counter (Direct Beta-Counter Matrix 9600; Packard).
HaCaT keratinocytes were plated out in 24-well plates, 50,000 cells/well. […] After 4 h media were discarded, cells washed with cold phosphate-buffered saline and incubated in 10% trichloroacetic acid for 30 min. Cells were washed again with phosphate-buffered saline, 100 μl 1.0 M NaOH was added to each well and plates incubated for 30 min at 30° C. The supernatant was collected and the ^3H-radioactivity measured by scintillation counting using a Direct Beta-Counter Matrix 9600 (Packard). The [^3H]-thymidine incorporation into DNA was measured separately for each well and the results entered into the calculation as the mean of 6 wells for each condition in a series of six experiments (n=36). Data were analyzed with GraphPad Prizm Version 4.0 (GraphPad Software Inc., San Diego, Calif., USA) using t tests. Differences were considered significant when p<0.05.

1,25 (OH)2 D3 was tested, and the “Collagen CPM/Well (mean ± SEM) × 10^−5 FB” value (Human dermal fibroblasts) was 310 ± 100 CPM/Well × 10^−5 FB and the “Hyaluronan CPM/Well (mean ± SEM) × 10^−5 FB” value [1] was 297 ± 18 CPM/Well × 10^−5 FB.

C=C1C(=CC=C2CCCC3(C)C2CCC3C(C)(O)CCC(O)C(C)C)CC(O)CC1O (stereo not drawn) [1,20,24(OH)2D3, (5Z,7E)-9,10-secocholesta-5,7,10(19)-triene-1α,3β,20,24-tetrol] was tested, and the “colony formation in soft agar versus vehicle control” value [2] was “greatly inhibited colony formation”.

For C=C1C(=CC=C2CCCC3(C)C2CCC3C(C)(O)CCCC(C)(C)O)CC(O)CC1O (stereo not shown) [1,20,25(OH)2D3, 1,20,25-trihydroxycholecalciferol], the “colony formation in soft agar versus vehicle control” value [2] was “greatly inhibited colony formation”.

Work on C=C1/C(=C\C=C2/CCC[C@]3(C)[C@@H]([C@H](C)CCCC(C)C)CC[C@@H]23)C[C@@H](O)C[C@@H]1O [1α-hydroxycholecalciferol, (5Z,7E)-9,10-secocholesta-5,7,10(19)-triene-1α,3β-diol] yielded a Km (cytochrome P450scc) of 41 ± 6 µM and a kcat (cytochrome P450scc; substrate in 0.45% cyclodextrin) of 1.3±0.1 mol/min/mol P450scc.

In the case of CC(O)C1(O)CCC2C3=CC=C4CC(O)CCC4(C)C3CCC21C (stereo not shown) [17,20 R(OH)27DHP], the “Collagen CPM/Well (mean ± SEM) × 10^−5 FB” value (Human dermal fibroblasts) is reported as 173 ± 11 CPM/Well × 10^−5 FB and the “Hyaluronan CPM/Well (mean ± SEM) × 10^−5 FB” value [1] is reported as 607 ± 127 CPM/Well × 10^−5 FB.

With CC(O)C1(O)CCC2C3=CC=C4CC(O)CCC4(C)C3CCC21C (stereo not shown) [17,20 S(OH)27DHP] the “Collagen CPM/Well (mean ± SEM) × 10^−5 FB” value (Human dermal fibroblasts) was 213 ± 17 CPM/Well × 10^−5 FB and the “Hyaluronan CPM/Well (mean ± SEM) × 10^−5 FB” value [1] was 227 ± 53 CPM/Well × 10^−5 FB.

In the case of CC(O)C1(O)CCC2C3=CC=C4CC(O)CCC4(C)C3CCC21C (stereo not shown) [17,20(OH)27DHP], the “TGF-b1 induced collagen protein production” value (Human dermal fibroblasts; [3H]-proline) is reported as “inhibited TGF-b1 induced collagen protein production”.

In the case of C[C@]12CC[C@H]3C(=CC=C4C[C@@H](O)CC[C@@]43C)[C@@H]1CC[C@@H]2C(=O)O [17-COOH, (5Z,7E)-3β-hydroxy-androsta-5,7-diene-17β-carboxylic acid], the DNA synthesis (HaCaT keratinocytes; 72 hrs, 0.01-100 nM) is reported as “DNA synthesis was inhibited at all concentrations”.

With C=C1CCC(O)CC1=CC=C1CCCC2(C)C1CCC2(O)C(C)(O)CC(O)CC(C)C (stereo not drawn) [17α,20,23-trihydroxycholecalciferol, (5Z,7E)-9,10-secocholesta-5,7,10(19)-triene-3β,17α,20,23-tetrol] the “keratinocyte proliferation compared with 1α,25-dihydroxycholecalciferol” value (HaCaT keratinocytes; 48 h) was “inhibit keratinocyte proliferation more potently than the control compound”.

C=C1CCC(O)CC1=CC=C1CCCC2(C)C1CCC2C(C)(O)CCC(O)C(C)C (stereo not drawn) [20,24(OH)2D3, (5Z,7E)-9,10-secocholesta-5,7,10(19)-triene-3β,20,24-triol] was tested, and the “colony formation in soft agar versus vehicle control” value [2] was “greatly inhibited colony formation”.

With C=C1CCC(O)CC1=CC=C1CCCC2(C)C1CCC2C(C)(O)CCCC(C)(C)O (stereo not drawn) [20,25(OH)2D3, (5Z,7E)-9,10-secocholesta-5,7,10(19)-triene-3β,20,25-triol] the “colony formation in soft agar versus vehicle control” value [2] was “greatly inhibited colony formation”.

In the case of C=C1CCC(O)CC1=CC=C1CCCC2(C)C1CCC2C(C)(O)CCCC(C)CO (stereo not drawn) [20,26(OH)2D3, (5Z,7E)-9,10-secocholesta-5,7,10(19)-triene-3β,20,26-triol], the “colony formation in soft agar versus vehicle control” value [2] is reported as “greatly inhibited colony formation”.

For CC(=O)[C@H]1CC[C@H]2C3=CC=C4C[C@@H](O)CC[C@]4(C)[C@H]3CC[C@]12C [compound 1, 3β-hydroxypregna-5,7-dien-20-one], the “Collagen CPM/Well (mean ± SEM) × 10^−5 FB” value (Human dermal fibroblasts) was 292 ± 31 CPM/Well × 10^−5 FB and the “Hyaluronan CPM/Well (mean ± SEM) × 10^−5 FB” value [1] was 230 ± 34 CPM/Well × 10^−5 FB.

With “(5Z,7E)-9,10-secoandrosta-5,7,10(19)-trien-3β-ol [aD3]” the “colony formation on soft agar” value ([2]; SKMEL-188, dose dependent) was “suppress colony formation on soft agar”.
